Results: patent publication US20240173432A1, “Compositions and Methods for Treatment of Myotonic Dystrophy Type 1 with CRISPR/SluCas9” (Vertex Pharmaceuticals Incorporated, priority 2021, published 2024)

Test system: CUG foci in primary DM1 patient myoblasts
Assay: Dual-cut screening: FISH staining of CUG RNA foci
Format: cell-based, human
Settings: sgRNA pair; primary DM1 patient myoblasts; 3 μM DNA-PKi Compound 6 for 48 hours
In short: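 SluCas9 RNPs (protein:sgRNA 1:3; 20 pmol SluCas9 + 60 pmol sgRNA per guide, paired 1:1) nucleofected into primary DM1 patient myoblasts, then DMSO or 3 μM DNA-PKi Compound 6 for 48 h. At 72 h post-nucleofection cells fixed, FISH-stained with Cy3-PNA(CAG)5 probe plus anti-MBNL1 and Hoechst; % CUG foci-free nuclei by high-content confocal imaging.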

Substance	% of CUG foci free nuclei (DNA-PKi)
SluU62 + SluD48 (guide 1 AGGACCCTTCGAGCCCCGTTCG; guide 2 GAGAGCAGCGCAAGTGAGGAGG; guide RNA; listed as DNA, chemistry not fully specified)	88.08%
SluU62 + SluD56 (guide 1 AGGACCCTTCGAGCCCCGTTCG; guide 2 CCAGCCGGCTCCGCCCGCTTCG; guide RNA; listed as DNA, chemistry not fully specified)	84.3%
SluU62 + SluD68 (guide 1 AGGACCCTTCGAGCCCCGTTCG; guide 2 CCTGTAGCCTGTCAGCGAGTCG; guide RNA; listed as DNA, chemistry not fully specified)	87.71%
SluU62 + SluD73 (guide 1 AGGACCCTTCGAGCCCCGTTCG; guide 2 CCAAAACGTGGATTGGGGTTGT; guide RNA; listed as DNA, chemistry not fully specified)	88.13%
SluU62 + SluD83 (guide 1 AGGACCCTTCGAGCCCCGTTCG; guide 2 GTGGGGACAGACAATAAATACC; guide RNA; listed as DNA, chemistry not fully specified)	88.94%
SluU62 + SluD100 (guide 1 AGGACCCTTCGAGCCCCGTTCG; guide 2 GTCCAGAGCTTTGGGCAGATGG; guide RNA; listed as DNA, chemistry not fully specified)	88.35%
SluU63 + SluD32 (guide 1 GGGGCTCGAAGGGTCCTTGTAG; guide 2 CTTGTGCATGACGCCCTGCTCT; guide RNA; listed as DNA, chemistry not fully specified)	89.04%
SluU63 + SluD34 (guide 1 GGGGCTCGAAGGGTCCTTGTAG; guide 2 CGCGCCAGACGCTCCCCAGAGC; guide RNA; listed as DNA, chemistry not fully specified)	87.25%
SluU63 + SluD48 (guide 1 GGGGCTCGAAGGGTCCTTGTAG; guide 2 GAGAGCAGCGCAAGTGAGGAGG; guide RNA; listed as DNA, chemistry not fully specified)	90.03%

Same assay, conditions: sgRNA pair; primary DM1 patient myoblasts; vehicle (DMSO)

Substance	% of CUG foci free nuclei (Vehicle)
SluU62 + SluD48 (guide 1 AGGACCCTTCGAGCCCCGTTCG; guide 2 GAGAGCAGCGCAAGTGAGGAGG; guide RNA; listed as DNA, chemistry not fully specified)	54.22%
SluU62 + SluD56 (guide 1 AGGACCCTTCGAGCCCCGTTCG; guide 2 CCAGCCGGCTCCGCCCGCTTCG; guide RNA; listed as DNA, chemistry not fully specified)	36.42%
SluU62 + SluD68 (guide 1 AGGACCCTTCGAGCCCCGTTCG; guide 2 CCTGTAGCCTGTCAGCGAGTCG; guide RNA; listed as DNA, chemistry not fully specified)	49.06%
SluU62 + SluD73 (guide 1 AGGACCCTTCGAGCCCCGTTCG; guide 2 CCAAAACGTGGATTGGGGTTGT; guide RNA; listed as DNA, chemistry not fully specified)	52.87%
SluU62 + SluD83 (guide 1 AGGACCCTTCGAGCCCCGTTCG; guide 2 GTGGGGACAGACAATAAATACC; guide RNA; listed as DNA, chemistry not fully specified)	56.65%
SluU62 + SluD100 (guide 1 AGGACCCTTCGAGCCCCGTTCG; guide 2 GTCCAGAGCTTTGGGCAGATGG; guide RNA; listed as DNA, chemistry not fully specified)	53.45%
SluU63 + SluD32 (guide 1 GGGGCTCGAAGGGTCCTTGTAG; guide 2 CTTGTGCATGACGCCCTGCTCT; guide RNA; listed as DNA, chemistry not fully specified)	75.26%
SluU63 + SluD34 (guide 1 GGGGCTCGAAGGGTCCTTGTAG; guide 2 CGCGCCAGACGCTCCCCAGAGC; guide RNA; listed as DNA, chemistry not fully specified)	77.85%
SluU63 + SluD48 (guide 1 GGGGCTCGAAGGGTCCTTGTAG; guide 2 GAGAGCAGCGCAAGTGAGGAGG; guide RNA; listed as DNA, chemistry not fully specified)	73.73%

Test system: CTG repeat in the 3′ UTR of human DMPK gene
Assay: Dual-cut screening: CTG repeat excision efficiency by loss-of-signal ddPCR
Format: cell-based
Settings: sgRNA pair; primary DM1 patient myoblasts; 3 μM DNA-PKi Compound 6 for 48 hours
In short: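 Upstream and downstream SluCas9 RNPs (20 pmol protein, 60 pmol sgRNA each) mixed 1:1 and nucleofected into primary DM1 patient myoblasts, then treated 48 h with DMSO or 3 μM DNA-PKi Compound 6. Genomic DNA taken 72 h post-nucleofection; excision read as loss of target signal by ddPCR versus a DMPK exon 1 reference.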

Substance	Excision efficiency (by ddPCR)
SluU62 + SluD48 (guide 1 AGGACCCTTCGAGCCCCGTTCG; guide 2 GAGAGCAGCGCAAGTGAGGAGG; guide RNA; listed as DNA, chemistry not fully specified)	66.36
SluU62 + SluD56 (guide 1 AGGACCCTTCGAGCCCCGTTCG; guide 2 CCAGCCGGCTCCGCCCGCTTCG; guide RNA; listed as DNA, chemistry not fully specified)	61.21
SluU62 + SluD68 (guide 1 AGGACCCTTCGAGCCCCGTTCG; guide 2 CCTGTAGCCTGTCAGCGAGTCG; guide RNA; listed as DNA, chemistry not fully specified)	63.55
SluU62 + SluD73 (guide 1 AGGACCCTTCGAGCCCCGTTCG; guide 2 CCAAAACGTGGATTGGGGTTGT; guide RNA; listed as DNA, chemistry not fully specified)	65.89
SluU62 + SluD83 (guide 1 AGGACCCTTCGAGCCCCGTTCG; guide 2 GTGGGGACAGACAATAAATACC; guide RNA; listed as DNA, chemistry not fully specified)	68.69
SluU62 + SluD100 (guide 1 AGGACCCTTCGAGCCCCGTTCG; guide 2 GTCCAGAGCTTTGGGCAGATGG; guide RNA; listed as DNA, chemistry not fully specified)	64.02
SluU63 + SluD32 (guide 1 GGGGCTCGAAGGGTCCTTGTAG; guide 2 CTTGTGCATGACGCCCTGCTCT; guide RNA; listed as DNA, chemistry not fully specified)	94.81
SluU63 + SluD34 (guide 1 GGGGCTCGAAGGGTCCTTGTAG; guide 2 CGCGCCAGACGCTCCCCAGAGC; guide RNA; listed as DNA, chemistry not fully specified)	93.5
SluU63 + SluD48 (guide 1 GGGGCTCGAAGGGTCCTTGTAG; guide 2 GAGAGCAGCGCAAGTGAGGAGG; guide RNA; listed as DNA, chemistry not fully specified)	94.25

Same assay, conditions: sgRNA pair; primary DM1 patient myoblasts; vehicle (DMSO)

Substance	Excision efficiency by ddPCR (Vehicle)
SluU62 + SluD48 (guide 1 AGGACCCTTCGAGCCCCGTTCG; guide 2 GAGAGCAGCGCAAGTGAGGAGG; guide RNA; listed as DNA, chemistry not fully specified)	35.6
SluU62 + SluD56 (guide 1 AGGACCCTTCGAGCCCCGTTCG; guide 2 CCAGCCGGCTCCGCCCGCTTCG; guide RNA; listed as DNA, chemistry not fully specified)	32.08
SluU62 + SluD68 (guide 1 AGGACCCTTCGAGCCCCGTTCG; guide 2 CCTGTAGCCTGTCAGCGAGTCG; guide RNA; listed as DNA, chemistry not fully specified)	33.08
SluU62 + SluD73 (guide 1 AGGACCCTTCGAGCCCCGTTCG; guide 2 CCAAAACGTGGATTGGGGTTGT; guide RNA; listed as DNA, chemistry not fully specified)	38.11
SluU62 + SluD83 (guide 1 AGGACCCTTCGAGCCCCGTTCG; guide 2 GTGGGGACAGACAATAAATACC; guide RNA; listed as DNA, chemistry not fully specified)	43.14
SluU62 + SluD100 (guide 1 AGGACCCTTCGAGCCCCGTTCG; guide 2 GTCCAGAGCTTTGGGCAGATGG; guide RNA; listed as DNA, chemistry not fully specified)	37.11
SluU63 + SluD32 (guide 1 GGGGCTCGAAGGGTCCTTGTAG; guide 2 CTTGTGCATGACGCCCTGCTCT; guide RNA; listed as DNA, chemistry not fully specified)	60.75
SluU63 + SluD34 (guide 1 GGGGCTCGAAGGGTCCTTGTAG; guide 2 CGCGCCAGACGCTCCCCAGAGC; guide RNA; listed as DNA, chemistry not fully specified)	63.27
SluU63 + SluD48 (guide 1 GGGGCTCGAAGGGTCCTTGTAG; guide 2 GAGAGCAGCGCAAGTGAGGAGG; guide RNA; listed as DNA, chemistry not fully specified)	63.77
